The subject of experiment [1] is T1, Y50Bg4.
T1 construct: expressed in E. coli DH5alpha, Ni-NTA purified; primers encode MKIDGGLKC... at N-end and ...EIIKKYKE at C-end
Description: glucose oxidase-peroxidase assay, Michaelis-Menten non-linear fit. It is filed as biochemical, uncultured bacterium. The settings on record: sodium citrate buffer pH 6.0, 60°C; 0-20 mg/mL substrate. The source says:
glucose oxidase-peroxidase assay, Michaelis-Menten non-linear fit on Y50Bg4

Experiment [2] has as its system T1, Y50Bg4. Description: p-nitrophenol release at […] nm, Michaelis-Menten non-linear fit. In kind it is biochemical, uncultured bacterium. The settings on record: sodium citrate buffer pH 6.0, 60°C; 0-2 mM substrate.

For the compound `OC[C@H]1O[C@@H](O[C@H]2[C@H](O)[C@@H](O)C(O)O[C@@H]2CO)[C@H](O)[C@@H](O)[C@@H]1O` (some centres unmarked) [cellobiose], the Km in the experiment on Y50Bg4 [1] is reported as 4.69 mg/mL.

`O=[N+]([O-])c1ccc(O[C@@H]2O[C@H](CO)[C@@H](O)[C@H](O)[C@H]2O)cc1` [p-nitrophenyl-β-D-glucopyranoside]: in the experiment on Y50Bg4 [2], the Km worked out at 530 µM.

As usually defined, the Km is the concentration of substrate that gives half-maximal velocity.
